Assay results reported in ChEMBL document CHEMBL1128195, “A novel class of cyclic beta-dicarbonyl leaving groups and their use in the design of benzisothiazolone human leukocyte elastase inhibitors” (J Med Chem, 1995).

Experiments:
[1] = in vitro; conditions: human, blood
[2] = in vitro; conditions: human, liver
Description: Half life in human liver at 37 degree C

Row | SMILES | half-life [1] [h] | half-life [2] [h]
1 | COc1cc(C(C)C)c2c(c1)S(=O)(=O)N(COc1cc(=O)oc3ccccc13)C2=O | 6 | –
2 | COc1cc(C(C)C)c2c(c1)S(=O)(=O)N(COC(=O)c1c(Cl)cccc1Cl)C2=O | 2.33 | 1.22
3 | CC(C)c1cccc2c1C(=O)N(COc1nc3ccccn3c(=O)c1Cl)S2(=O)=O | 0.833 | –
4 | COc1cc(C(C)C)c2c(c1)S(=O)(=O)N(COC1=C(C)C(=O)CCC1)C2=O | 0.267 | –
5 | COc1cc(C(C)C)c2c(c1)S(=O)(=O)N(COC1=CC(=O)c3ccccc31)C2=O | < 0.25 | –
6 | COc1cc(C(C)C)c2c(c1)S(=O)(=O)N(COc1cc(C)oc(=O)c1C(=O)c1ccccc1)C2=O | < 0.25 | –
7 | COc1cc(C(C)C)c2c(c1)S(=O)(=O)N(COC1=C(Cc3ccccc3)C(=O)OC1C)C2=O (configuration not stated) | 2.82 | 0.583
8 | COc1cc(C(C)C)c2c(c1)S(=O)(=O)N(COc1cc(=O)n3c(n1)CCCC3)C2=O | 0.85 | –
9 | COc1cc(C(C)C)c2c(c1)S(=O)(=O)N(COC1=CC(=O)C1)C2=O | < 0.25 | –
10 | COc1cc(C(C)C)c2c(c1)S(=O)(=O)N(COc1nc3ccccn3c(=O)c1Cl)C2=O | 2.67 | –
11 | COc1cc(C(C)C)c2c(c1)S(=O)(=O)N(COC1=CC(=O)OC1C)C2=O (configuration not stated) | < 0.25 | –
12 | COc1cc(C(C)C)c2c(c1)S(=O)(=O)N(COC1=C(Cc3ccccc3)C(=O)OC1)C2=O | 0.967 | 1.25
13 | COc1cc(C(C)C)c2c(c1)S(=O)(=O)N(COC1=C(c3ccccc3)C(=O)OC1C)C2=O (configuration not stated) | 2.57 | 1.37
14 | COc1cc(C(C)C)c2c(c1)S(=O)(=O)N(COc1nc3ccccn3c(=O)c1C)C2=O | 5.83 | 1.72
15 | COc1cc(C(C)C)c2c(c1)S(=O)(=O)N(COc1nc3ccccn3c(=O)c1Br)C2=O | 2.07 | –
16 | COc1cc(C(C)C)c2c(c1)S(=O)(=O)N(COC1=C(c3ccccc3)C(=O)OC1)C2=O | 0.483 | –
17 | COc1cc(C(C)C)c2c(c1)S(=O)(=O)N(COc1cc(C)oc(=O)c1Cl)C2=O | < 0.25 | –
18 | COc1cc(C(C)C)c2c(c1)S(=O)(=O)N(COC1=C(Cl)C(=O)OC1)C2=O | < 0.25 | –
19 | CCC(C)c1cccc2c1C(=O)N(COc1nc3ccccn3c(=O)c1Cl)S2(=O)=O (configuration not stated) | 3.83 | –
20 | COc1cc(C(C)C)c2c(c1)S(=O)(=O)N(COc1cc(=O)n3ccccc3n1)C2=O | 1.78 | 1.7
21 | O=C1c2ccccc2S(=O)(=O)N1COc1nc2ccccn2c(=O)c1Cl | < 0.25 | –
22 | COc1cc(C(C)C)c2c(c1)S(=O)(=O)N(COc1cc(C)oc(=O)c1)C2=O | < 0.25 | –
23 | COc1cc(C(C)C)c2c(c1)S(=O)(=O)N(COC1=CC(=O)OC1)C2=O | < 0.25 | –
24 | COc1cc(C(C)C)c2c(c1)S(=O)(=O)N(COC1=C(C)C(=O)CC1)C2=O | < 0.25 | –
25 | COc1cc(C(C)C)c2c(c1)S(=O)(=O)N(COC1=C(Cc3ccccc3)C(=O)CC1)C2=O | 0.917 | –
26 | COc1cc(C(C)C)c2c(c1)S(=O)(=O)N(COC1=CC(=O)N(Cc3ccccc3)C1)C2=O | 0.233 | –
